Columns and labels:
Settings in all cases: synthetic library passage 3, intravenous, relative to wild-type AAV9
[1] = test system: brain, spinal cord, and DRG of the NHPs; experiment: NGS fold enrichment of synthetic library (passage 3) in NHPs, first cross-species screen; type: in vivo, cynomolgus macaques (Macaca fascicularis)
Outline: (§1)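 Synthetic capsid library (passage 3) was given intravenously […] to NHPs aged 2-4 years and to BALB/c and C57Bl/6 mice (n=3 each, 6-8 weeks). After about 28 days in vivo, tissue RNA was RT-PCR amplified and NGS-sequenced; values are fold enrichment per variant relative to wild-type AAV9.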

brain [2] = experiment: NGS fold enrichment of synthetic library (passage 3) in BALB/c mice, first cross-species screen; type: in vivo
Outline: as §1

brain [3] = experiment: NGS fold enrichment of synthetic library (passage 3) in C57Bl/6 mice, first cross-species screen; type: in vivo
Outline: as §1

[4] = RNA from spinal cord of NHPs, NGS
[5] = RNA from brain of BALB/c mice, NGS
[6] = RNA from brain of C57Bl/6 mice, NGS

| Sequence | Fold enrichment over AAV9 in the brain of NHPs ([1]; RNA NGS, brain of NHPs) [fold] | Fold enrichment over AAV9 in the spinal cord of NHPs ([1]; RNA NGS, spinal cord of NHPs) [fold] | Fold enrichment over AAV9 in the brain of Mice (BALB/c) (brain [2]; RNA NGS, brain of BALB/c mice) [fold] | Fold enrichment over AAV9 in the brain of Mice (C57Bl/6) (brain [3]; RNA NGS, brain of C57Bl/6 mice) [fold] | Fold enrichment over AAV9 in the brain of NHPs ([1]; RNA from brain of NHPs, NGS) [fold] | Fold enrichment over AAV9 in the spinal cord of NHPs [1, 4] [fold] | Fold enrichment over AAV9 in the brain of Mice (BALB/c) (brain [2]; [5]) [fold] | Fold enrichment over AAV9 in the brain of Mice (C57Bl/6) (brain [3]; [6]) [fold] |
| --- | --- | --- | --- | --- | --- | --- | --- | --- |
| GSGQLSVPYDNQQT | 1.521 | 0.000 | 0.111 | 0.622 | – | – | – | – |
| GSGQLVLTLQNQQT | – | – | – | – | 1.143 | 0.000 | 0.336 | 0.336 |
| GSGQLVSGLYNQQT | – | – | – | – | 1.325 | 0.000 | 0.733 | 0.842 |
| GSGQLVTSGPNQQT | 1.669 | 5.271 | 0.433 | 0.964 | – | – | – | – |
| GSGQMASRESNQQT | 2.492 | 0.300 | 0.288 | 0.341 | – | – | – | – |
| GSGQMGRQAVNQQT | 1.554 | 1.529 | 0.411 | 0.535 | – | – | – | – |
| GSGQMKDLHRNQQT | 1.014 | 1.068 | 0.506 | 0.587 | – | – | – | – |
| GSGQMQPHVQNQQT | – | – | – | – | 1.389 | 9.381 | 0.153 | 0.387 |
| GSGQMQSAGSNQQT | 1.482 | 0.116 | 1.128 | 1.034 | – | – | – | – |
| GSGQMSDVHGNQQT | – | – | – | – | 1.346 | 7.172 | 0.548 | 0.408 |
| GSGQMVHTIGNQQT | 1.026 | 1.328 | 0.430 | 0.406 | – | – | – | – |
| GSGQNAGSFPNQQT | 1.928 | 12.575 | 0.286 | 1.091 | – | – | – | – |
| GSGQNAHAKEGQQT | 1.108 | 0.000 | 1.179 | 0.875 | – | – | – | – |
| GSGQNAQQAAAQQT | 1.568 | 4.239 | 0.604 | 0.937 | – | – | – | – |
| GSGQNARLKDNQQT | – | – | – | – | 1.354 | 2.395 | 0.938 | 0.580 |
| GSGQNAYSSQAQQT | – | – | – | – | 1.201 | 12.096 | 0.216 | 0.629 |
| GSGQNERHLVLQQT | 1.019 | 5.354 | 0.150 | 0.416 | – | – | – | – |
| GSGQNGGSSNRQQT | 1.109 | 2.594 | 0.844 | 1.255 | – | – | – | – |
| GSGQNGHLSLKQQT | 2.362 | 1.896 | 0.270 | 0.718 | – | – | – | – |
| GSGQNHGLQSGQQT | 1.530 | 4.960 | 0.779 | 0.938 | – | – | – | – |

From patent publication US20260250318A1, “COMPOSITIONS AND METHODS FOR CROSSING THE BLOOD BRAIN BARRIER” (VOYAGER THERAPEUTICS, INC., priority 2022, published 2026)
